In assay [1] the target is T1, PRS enzyme (Homo sapiens, UniProt P07814).
T1 construct: the portion corresponding to PRS in cDNA of EPRS was subcloned; made in house
T1 sequence (P07814 1007-1512 limits assumed): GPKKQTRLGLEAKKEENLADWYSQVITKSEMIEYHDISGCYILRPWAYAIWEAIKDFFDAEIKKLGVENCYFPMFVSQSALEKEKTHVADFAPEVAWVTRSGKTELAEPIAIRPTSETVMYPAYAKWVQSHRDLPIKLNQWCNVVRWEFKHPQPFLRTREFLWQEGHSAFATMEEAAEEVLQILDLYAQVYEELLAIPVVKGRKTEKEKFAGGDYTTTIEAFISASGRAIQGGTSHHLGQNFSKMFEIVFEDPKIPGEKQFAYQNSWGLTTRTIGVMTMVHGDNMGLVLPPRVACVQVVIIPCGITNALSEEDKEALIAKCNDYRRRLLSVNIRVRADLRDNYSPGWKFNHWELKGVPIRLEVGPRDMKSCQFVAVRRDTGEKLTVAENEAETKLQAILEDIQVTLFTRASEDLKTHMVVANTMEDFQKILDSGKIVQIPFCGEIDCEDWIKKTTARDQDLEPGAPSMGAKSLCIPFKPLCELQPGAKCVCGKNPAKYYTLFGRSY
The assay is described as follows: PRS enzyme activity inhibition experiment. Format: biochemical. As to the method: Specifically, the portion corresponding to PRS in cDNA of EPRS was subcloned, and the obtained high-purity PRS protein was purified and used in the experiment. The compounds (1 μM) prepared in Examples were added into the reaction buffer (20 mM KPO4 (pH 7.4), 6 mM MgAc, 5 mM ATP, […] tRNA, 0.5 mM DTT, […][^3H]proline (1 mCi/mL)) and allowed to react at 37° C. for 5 to 10 minutes. The reaction was terminated with 3M paper that was in advance dried by addition of 5% TCA. The radioactivity was measured using a liquid scintillation counter.
% Inhibition and IC50 values of the respective compounds were calculated and analyzed using Microsoft Excel or Sigma Plot 8.0. In Table 1, the results are divided into A, B and C according to the range of IC50.

Assay [2] concerns NCI-H460 cells. The assay is described as follows: Cancer cell growth inhibition experiment (MTT assay). The assay is classed as cell-based. The note with it: Homo sapiens, lung cancer cell line, compounds 48 hours, cell viability by MTT assay. How it is done:
NCl-H460 cells, lung cancer cell lines, were cultured in 5% CO2, 37° C. incubator using a flask for 75 cm^2 tissue culture. 96-well plates were used for the evaluation. These were prepared by differently applying at concentrations in the range of 6,000 to 12,000 cells/well according to the growth rate of the cell lines. The medium containing 5% FBS were dispensed in 200 μL/well and used. The medium were cultured for 24 hours. After confirming the cell status and dispensing form of a 96-well plate under a microscope, they were used for subsequent experiments. The compounds were evaluated at concentrations of 100, 30, 10, 3, 1, 0.3, 0.03, 0.01 μM. After removing the existing medium, the compounds with various concentrations were treated in an amount of 200 μL/well. The compounds-treated plates were further cultured for 48 hours, and the cell viabilities were measured by MTT assay to calculate IC50 values.
% Inhibition and IC50 values of the respective compounds were calculated and analyzed using Sigma Plot 8.0. In Table 2, the results are divided into A, B and C according to the range of IC50. The case where the derived IC50 is 3 μM or less is represented by “A”, the case where the IC50 is 3 to 10 μM is represented by “B”, and the case where the IC50 is 10 μM or higher is represented by “C”.

[3] abbreviates: purified PRS protein subcloned from EPRS cDNA, [3H]proline, 37° C., 5 to 10 minutes, liquid scintillation counter, read-out: PRS IC50.

Read-outs that look alike come from different tables or passages of the source. Some results are limits rather than exact numbers.

Consider `O=C(C[C@H]1NCCC[C@@H]1O)Cn1cnc2c(-c3ccccc3)cccc21` [Example 1, 1-((2R,3S)-3-hydroxypiperidin-2-yl)-3-(4-phenyl-1H-benzo[d]imidazol-1-yl)propan-2-one], for which the IC50 in assay [1] (setting [3]) was 100 to 500 nM; in assay [2] it was at least 10000 nM.
On to `O=C(C[C@H]1NCCC[C@@H]1O)Cn1cnc2c(-c3cccc(F)c3)nccc21` [Example 2, 1-(4-(3-fluorophenyl)-1H-imidazo[4,5-c]pyridin-1-yl)-3-((2R,3S)-3-hydroxypiperidin-2-yl)propan-2-one], for which, in assay [1] (setting [3]), the IC50 was above 500 nM.
For `O=C(C[C@H]1NCCC[C@@H]1O)Cn1cnc2c(-c3cccc(Cl)c3)nccc21` [Example 3, 1-(4-(3-chlorophenyl)-1H-imidazo[4,5-c]pyridin-1-yl)-3-((2R,3S)-3-hydroxypiperidin-2-yl)propan-2-one], the half-maximal inhibitory concentration (IC50) in assay [1] (setting [3]) is above 500 nM.
For `O=C(C[C@H]1NCCC[C@@H]1O)Cn1cnc2c(-c3cccc(C(F)(F)F)c3)nccc21` [Example 4, 1-((2R,3S)-3-hydroxypiperidin-2-yl)-3-(4-(3-(trifluoromethyl)phenyl)-1H-imidazo[4,5-c]pyridin-1-yl)propan-2-one], the IC50 in assay [1] (setting [3]) is above 500 nM.
Same read-out and setting: to `O=C(C[C@H]1NCCC[C@@H]1O)Cn1cnc2c(-c3cc(F)cc(Cl)c3)nccc21` [Example 5, 1-(4-(3-chloro-5-fluorophenyl)-1H-imidazo[4,5-c]pyridin-1-yl)-3-((2R,3S)-3-hydroxypiperidin-2-yl)propan-2-one] belongs above 500 nM.
Turning to `O=C(C[C@H]1NCCC[C@@H]1O)Cn1cnc2c(-c3cc(Cl)cc(Cl)c3)nccc21` [Example 6, 1-(4-(3,5-dichlorophenyl)-1H-imidazo[4,5-c]pyridin-1-yl)-3-((2R,3S)-3-hydroxypiperidin-2-yl)propan-2-one], the IC50 in assay [1] (setting [3]) was above 500 nM.
As to `O=C(C[C@H]1NCCC[C@@H]1O)Cn1cnc2c(N3CCCC3)nccc21` [Example 7, 1-((2R,3S)-3-hydroxypiperidin-2-yl)-3-(4-(pyrrolidin-1-yl)-1H-imidazo[4,5-c]pyridin-1-yl)propan-2-one], the IC50 in assay [2] is at least 10000 nM.
As to `O=C(C[C@H]1NCCC[C@@H]1O)Cn1cnc2cc(-c3ccccc3)ccc21` [Example 8, 1-((2R,3S)-3-hydroxypiperidin-2-yl)-3-(5-phenyl-1H-benzo[d]imidazol-1-yl)propan-2-one], the IC50 in assay [1] (setting [3]) was above 500 nM; in assay [2], at least 10000 nM.
For `O=C(C[C@H]1NCCC[C@@H]1O)Cn1cnc2nc(-c3ccccc3F)ccc21` [Example 9, 1-(5-(2-fluorophenyl)-1H-imidazo[4,5-b]pyridin-1-yl)-3-((2R,3S)-3-hydroxypiperidin-2-yl)propan-2-one], the IC50 in assay [1] (setting [3]) was above 500 nM.
`O=C(C[C@H]1NCCC[C@@H]1O)Cn1cnc2nc(-c3cccc(F)c3)ccc21` [Example 10, 1-(5-(3-fluorophenyl)-1H-imidazo[4,5-b]pyridin-1-yl)-3-((2R,3S)-3-hydroxypiperidin-2-yl)propan-2-one]: in assay [1] (setting [3]), the half-inhibitory concentration (IC50) is above 500 nM.
For `O=C(C[C@H]1NCCC[C@@H]1O)Cn1cnc2nc(-c3ccc(F)cc3)ccc21` [Example 11, 1-(5-(4-fluorophenyl)-1H-imidazo[4,5-b]pyridin-1-yl)-3-((2R,3S)-3-hydroxypiperidin-2-yl)propan-2-one], the IC50 in assay [1] (setting [3]) was above 500 nM.
Still for that read-out and setting: to `O=C(C[C@H]1NCCC[C@@H]1O)Cn1cnc2nc(-c3cccc(Cl)c3)ccc21` [Example 12, 1-(5-(3-chlorophenyl)-1H-imidazo[4,5-b]pyridin-1-yl)-3-((2R,3S)-3-hydroxypiperidin-2-yl)propan-2-one] belongs above 500 nM; to `O=C(C[C@H]1NCCC[C@@H]1O)Cn1cnc2nc(-c3cccc(C(F)(F)F)c3)ccc21` [Example 13, 1-((2R,3S)-3-hydroxypiperidin-2-yl)-3-(5-(3-(trifluoromethyl)phenyl)-1H-imidazo[4,5-b]pyridin-1-yl)propan-2-one], above 500 nM.
Take `O=C(C[C@H]1NCCC[C@@H]1O)Cn1cnc2cc(-c3cccc(Cl)c3)cnc21` [Example 14, 1-(6-(3-chlorophenyl)-3H-imidazo[4,5-b]pyridin-3-yl)-3-((2R,3S)-3-hydroxypiperidin-2-yl)propan-2-one]: the IC50 in assay [1] (setting [3]) was 100 to 500 nM; in assay [2], at least 10000 nM.
Turning to `O=C(C[C@H]1NCCC[C@@H]1O)Cn1cnc2cc(-c3cccc(C(F)(F)F)c3)cnc21` [Example 15, 1-((2R,3S)-3-hydroxypiperidin-2-yl)-3-(6-(3-(trifluoromethyl)phenyl)-3H-imidazo[4,5-b]pyridin-3-yl)propan-2-one], the IC50 in assay [1] (setting [3]) is above 500 nM.
For the compound `Cc1c(-c2cccc(F)c2)ccc2c1ncn2CC(=O)C[C@H]1NCCC[C@@H]1O` [Example 16, 1-(5-(3-fluorophenyl)-4-methyl-1H-benzo[d]imidazol-1-yl)-3-((2R,3S)-3-hydroxypiperidin-2-yl)propan-2-one], the IC50 is 100 to 500 nM in assay [1] (setting [3]) and at least 10000 nM in assay [2].
`Cc1c(-c2cccc(Cl)c2)ccc2c1ncn2CC(=O)C[C@H]1NCCC[C@@H]1O` [Example 17, 1-(5-(3-chlorophenyl)-4-methyl-1H-benzo[d]imidazol-1-yl)-3-((2R,3S)-3-hydroxypiperidin-2-yl)propan-2-one]: the results for the IC50 in assay [1] (setting [3]) and in assay [2] were 100 to 500 nM and at least 10000 nM, respectively.
As to `Cc1c(-c2ccccc2Cl)ccc2c1ncn2CC(=O)C[C@H]1NCCC[C@@H]1O` [Example 18, 1-(5-(2-chlorophenyl)-4-methyl-1H-benzo[d]imidazol-1-yl)-3-((2R,3S)-3-hydroxypiperidin-2-yl)propan-2-one], the results for the IC50 in assay [1] (setting [3]) and in assay [2] were above 500 nM and at least 10000 nM, respectively.
Regarding `Cc1c(-c2ccc(Cl)cc2)ccc2c1ncn2CC(=O)C[C@H]1NCCC[C@@H]1O` [Example 19, 1-(5-(4-chlorophenyl)-4-methyl-1H-benzo[d]imidazol-1-yl)-3-((2R,3S)-3-hydroxypiperidin-2-yl)propan-2-one], the figures for the IC50 in assay [1] (setting [3]) and in assay [2] were 100 to 500 nM and at least 10000 nM, respectively.
For the compound `Cc1c(-c2cccc(C#N)c2)ccc2c1ncn2CC(=O)C[C@H]1NCCC[C@@H]1O` [Example 20, 3-(1-(3-((2R,3S)-3-hydroxypiperidin-2-yl)-2-oxopropyl)-4-methyl-1H-benzo[d]imidazol-5-yl)benzonitrile], the IC50 in assay [1] (setting [3]) is above 500 nM; in assay [2] it was at least 10000 nM.
For `Cc1c(-c2cccc(C(F)(F)F)c2)ccc2c1ncn2CC(=O)C[C@H]1NCCC[C@@H]1O` [Example 21, 1-((2R,3S)-3-hydroxypiperidin-2-yl)-3-(4-methyl-5-(3-(trifluoromethyl)phenyl)-1H-benzo[d]imidazol-1-yl)propan-2-one], the IC50 in assay [1] (setting [3]) was 100 to 500 nM; in assay [2] it was at least 10000 nM.
`O=C(C[C@H]1NCCC[C@@H]1O)Cn1cnc2ncc(-c3cccc(C(F)(F)F)c3)cc21` [Example 42, 1-((2R,3S)-3-hydroxypiperidin-2-yl)-3-(6-(3-(trifluoromethyl)phenyl)-1H-imidazo[4,5-b]pyridin-1-yl)propan-2-one]: the 50% inhibitory concentration (IC50) in assay [1] (setting [3]) is 100 to 500 nM.
On to `O=C(C[C@H]1NCCC[C@@H]1O)Cn1cnc2cccc(-c3ccccc3C(F)(F)F)c21` [Example 52, 1-((2R,3S)-3-hydroxypiperidin-2-yl)-3-(7-(2-(trifluoromethyl)phenyl)-1H-benzo[d]imidazol-1-yl)propan-2-one], for which, in assay [1] (setting [3]), the 50% inhibitory concentration (IC50) was above 500 nM.
With `O=C(C[C@H]1NCCC[C@@H]1O)Cn1cnc2cccc(-c3cccc(C(F)(F)F)c3)c21` [Example 53, 1-((2R,3S)-3-hydroxypiperidin-2-yl)-3-(7-(3-(trifluoromethyl)phenyl)-1H-benzo[d]imidazol-1-yl)propan-2-one], in assay [1] (setting [3]), the IC50 was above 500 nM.
In the case of `O=C(C[C@H]1NCCC[C@@H]1O)Cn1c(CO)nc2cc(-c3ccccc3)ccc21` [Example 55, 1-(2-(hydroxymethyl)-5-phenyl-1H-benzo[d]imidazol-1-yl)-3-((2R,3S)-3-hydroxypiperidin-2-yl)propan-2-one], in assay [1], the IC50 was above 500 nM.

Broadly, the IC50 is the concentration needed to halve the response being measured.
